The target of one data set is HiBiT tagged CK1α (Homo sapiens, UniProt P48729+Q96SW2). Description: CK1α degradation assay (HiBiT assay). The conditions noted are these: 20 hours; for Dmax: HT-1080, HT-1080 cells; for DC50: concentration at 50% CK1α degradation. Format: cell-based. The procedure, abridged: (§1)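 HT-1080 cells stably expressing wild-type CRBN, GSPT1A(1-138)/G575N and HiBiT-tagged CK1α or GSPT1, ~10,000/well, treated with compound from 3.162×10^-4 μM to 10 μM (3.16-fold steps). HiBiT luminescence normalized to DMSO as percent of control.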
Background: With HiBiT, luminescence reflects the tagged protein that the partner subunit can reach.

The nature of data set [1]: Pharmacokinetic study of single intravenous and oral administration in mouse. It is filed as in vivo. As to conditions: for C0 / clearance / half-life / Vd / AUC(0-inf) / Cmax / Tmax: plasma; for Vd: read-out: Vss. How it is done: The pharmacokinetic study of single intravenous and oral administration in mouse Sample collection and preparation: After intravenous injection or oral administration of test compounds, blood samples were collected and the blood collection time was recorded. After the blood sample was collected, it was immediately transferred into a labeled centrifuge tube containing K2-EDTA, followed by centrifugation and plasma collection. The plasma was then transferred into a pre-cooled centrifuge tube, quickly frozen on dry ice, and stored in an ultra-low temperature refrigerator at −70±10° C. until the LC-MS/MS analysis was performed.
Pharmacokinetic data analysis: The pharmacokinetic software was used to process the plasma drug concentration data of the compound in a non-compartmental model. The peak concentration (Cmax), peak time (Tmax) and quantifiable end time can be directly obtained from the plasma concentration-time diagram. The log-linear trapezoidal method was used to calculate the following pharmacokinetic parameters: half-life (T1/2), apparent volume of distribution (Vdss) and clearance (Cl), and the area under the time-plasma concentration curve (AUC0-inf) from the 0 point to the end point.

The subject of a further data set is MV4-11 cells. Description: MV4-11 cell proliferation assay (CTG cell viability). It is filed as cell-based. As to conditions: 120 hours, read-out: CTG cell viability assay_MV4-11: IC50. On the procedure:
MV4-11 Cell Proliferation Assay
The following is an example of an assay that can be used to determine the dose-dependent, anti-proliferative activity of CK1α degradating compounds in an AML cell line such as MV4-11 (ATCC Cat #CRL-9591).
MV4-11 cells were seeded into a 384-well plate (Cat #3764, Corning) pre-spotted with DMSO or test compounds. Increasing concentrations of test compounds (ranging from 1×10^−3 μM to 10 μM at a 3.162-fold increment in a 10-point dose response assay; ranging from 3.162×10^−4 μM to 10 μM at a 3.162-fold increment in a 11-point dose response assay) or DMSO were dispensed into an empty 384-well plate using an a D300e digital dispenser (Tecan) or an Echo Acoustic Liquid Handler (Beckman Coulter). About 2,000 cells in 50 μL of culture media (IMDM plus 10% heat-inactivated FBS) were seeded per well. Assay plates were incubated at 37° C. with 5% CO2 for 120 hours. After that, 20 μL of the CellTiter-Glo Luminescent Cell Viability Assay Reagent (Cat #G7573, Promega) was added to each well and incubated at room temperature for 30 minutes. Luminescence was then measured with an EnVision plate reader (PerkinElmer) or a PHERAstar plate reader (BMG LABTECH). All cell growth inhibition curves were processed using Collaborative Drug Discovery Vault softwares (Burlingame, CA, www.collaborativedrug.com).
Cell viability reads in compound-treated wells were normalized to that of DMSO control and expressed as Percent of Control (PoC, y). A four Parameter Logistic Model was used to determine the compound's EC50 and DC50, using the following equation:
[formula] • A==lowest cell viability read normalized to DMSO control in response to compound treatment, as determined by curve fit • B=cell viability read in DMSO control • C=EC50 • D=Hill Slope • x=compound concentration • EC50=the concentration of compound when y=(B−A)/2 • IC50=the concentration of the compound when y=50% of DMSO control • y=cell viability read normalized to DMSO control Ymin=(A/B)*100% • Ymin represents the lowest cell viability % that can be achieved by the compound treatment in the assay.

In a further data set the target is HiBiT tagged GSPT1 (Homo sapiens, UniProt P15170+Q96SW2). Description: GSPT1 degradation assay (HiBiT assay). It is filed as cell-based. The conditions noted are these: 20 hours, maximum GSPT1 degradation; for Dmax: HT-1080, HT-1080 cells. Summed up:
as §1

pIC50: −log10 of the molar value. Read-outs that look alike come from different tables or passages of the source.

Sequence of HiBiT tagged GSPT1 (P15170 whole entry): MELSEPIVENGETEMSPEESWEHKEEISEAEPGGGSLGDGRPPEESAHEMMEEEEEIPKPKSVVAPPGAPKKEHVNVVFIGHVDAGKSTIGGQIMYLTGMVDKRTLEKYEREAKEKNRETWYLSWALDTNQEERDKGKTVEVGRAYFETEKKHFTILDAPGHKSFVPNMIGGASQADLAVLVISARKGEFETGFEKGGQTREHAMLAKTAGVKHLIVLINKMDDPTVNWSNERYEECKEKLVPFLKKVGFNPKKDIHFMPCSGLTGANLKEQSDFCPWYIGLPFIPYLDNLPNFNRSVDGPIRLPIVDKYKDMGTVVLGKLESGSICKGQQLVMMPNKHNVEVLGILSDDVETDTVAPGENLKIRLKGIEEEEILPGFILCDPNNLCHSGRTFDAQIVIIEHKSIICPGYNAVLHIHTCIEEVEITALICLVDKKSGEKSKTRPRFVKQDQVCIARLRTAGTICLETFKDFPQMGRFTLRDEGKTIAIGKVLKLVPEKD
Sequence of HiBiT tagged GSPT1 (Q96SW2 whole entry): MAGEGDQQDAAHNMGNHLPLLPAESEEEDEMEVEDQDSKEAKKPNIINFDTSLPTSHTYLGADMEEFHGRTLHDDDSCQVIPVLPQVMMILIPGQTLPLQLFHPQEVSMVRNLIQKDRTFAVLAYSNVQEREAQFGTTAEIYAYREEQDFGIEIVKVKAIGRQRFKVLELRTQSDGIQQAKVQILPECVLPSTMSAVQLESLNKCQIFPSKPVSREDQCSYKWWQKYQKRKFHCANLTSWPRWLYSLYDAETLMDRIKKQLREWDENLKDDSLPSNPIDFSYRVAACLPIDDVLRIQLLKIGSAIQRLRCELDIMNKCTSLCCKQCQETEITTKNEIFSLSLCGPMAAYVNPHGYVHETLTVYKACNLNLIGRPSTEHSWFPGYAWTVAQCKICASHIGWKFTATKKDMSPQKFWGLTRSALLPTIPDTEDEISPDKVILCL
Sequence of HiBiT tagged GSPT1 (Q16531 whole entry partner): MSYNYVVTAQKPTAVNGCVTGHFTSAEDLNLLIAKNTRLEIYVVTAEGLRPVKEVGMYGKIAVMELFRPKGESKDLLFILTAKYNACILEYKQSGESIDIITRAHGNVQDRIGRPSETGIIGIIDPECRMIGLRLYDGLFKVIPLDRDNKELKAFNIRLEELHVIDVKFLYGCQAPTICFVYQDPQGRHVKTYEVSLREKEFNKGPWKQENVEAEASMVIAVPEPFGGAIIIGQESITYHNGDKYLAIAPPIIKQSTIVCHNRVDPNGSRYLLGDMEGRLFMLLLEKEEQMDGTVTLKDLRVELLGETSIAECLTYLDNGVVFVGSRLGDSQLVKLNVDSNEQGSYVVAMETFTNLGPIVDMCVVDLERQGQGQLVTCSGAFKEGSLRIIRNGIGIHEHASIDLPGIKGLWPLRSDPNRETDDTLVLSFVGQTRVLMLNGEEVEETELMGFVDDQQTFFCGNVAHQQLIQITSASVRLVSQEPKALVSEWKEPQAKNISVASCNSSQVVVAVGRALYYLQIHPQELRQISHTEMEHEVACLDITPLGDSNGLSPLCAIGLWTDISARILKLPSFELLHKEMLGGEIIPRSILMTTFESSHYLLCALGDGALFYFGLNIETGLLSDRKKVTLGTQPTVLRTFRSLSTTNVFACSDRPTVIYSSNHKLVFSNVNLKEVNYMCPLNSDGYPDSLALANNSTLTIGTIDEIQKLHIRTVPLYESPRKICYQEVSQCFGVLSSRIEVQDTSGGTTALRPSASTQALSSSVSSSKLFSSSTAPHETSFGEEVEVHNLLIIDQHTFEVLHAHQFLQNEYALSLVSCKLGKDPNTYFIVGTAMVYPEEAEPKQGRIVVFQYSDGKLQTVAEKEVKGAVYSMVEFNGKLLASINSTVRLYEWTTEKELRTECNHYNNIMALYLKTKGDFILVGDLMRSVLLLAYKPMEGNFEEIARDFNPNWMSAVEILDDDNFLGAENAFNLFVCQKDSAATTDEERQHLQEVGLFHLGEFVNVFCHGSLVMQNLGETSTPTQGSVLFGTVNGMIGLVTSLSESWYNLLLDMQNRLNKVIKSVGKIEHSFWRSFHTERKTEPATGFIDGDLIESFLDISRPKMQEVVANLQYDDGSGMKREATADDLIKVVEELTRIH
Sequence of HiBiT tagged CK1α (P48729 whole entry): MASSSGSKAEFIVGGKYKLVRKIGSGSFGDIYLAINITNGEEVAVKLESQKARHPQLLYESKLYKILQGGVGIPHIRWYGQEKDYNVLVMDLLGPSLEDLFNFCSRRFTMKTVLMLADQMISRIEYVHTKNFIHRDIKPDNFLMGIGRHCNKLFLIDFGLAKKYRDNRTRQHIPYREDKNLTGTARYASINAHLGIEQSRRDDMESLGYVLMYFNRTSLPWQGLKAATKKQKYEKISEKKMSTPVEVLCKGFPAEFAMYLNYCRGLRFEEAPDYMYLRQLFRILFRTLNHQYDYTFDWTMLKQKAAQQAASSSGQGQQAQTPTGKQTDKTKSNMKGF
Sequence of HiBiT tagged CK1α (Q96SW2 whole entry): as the sequence (Q96SW2 whole entry) above
Sequence of HiBiT tagged CK1α (Q16531 whole entry partner): as the sequence (Q16531 whole entry partner) above

Turning to `O=C1CC[C@H](N2Cc3cc(C(=O)N[C@H](c4ccc(Cl)cn4)C4CCC4)ccc3C2=O)C(=O)N1` (single isomer, unassigned) [Compound 82], the Dmax (usually the largest share of the target that was removed) on HiBiT tagged CK1α (maximum CK1α degradation) is 66.3%. For the same compound, in data set [1] (2 mg/kg, IV), the C0 amounted to 6800 ng/mL, the clearance was 10.5 mL/min/kg, the half-life (usually how long it takes for the measured level to halve) was 1.34 h and the Vd was found to be 0.85 L/kg. For the same compound, in data set [1] (10 mg/kg, PO), the AUC(0-inf) (usually the area under the concentration-time curve extrapolated to infinity) is 13300 ng·h/mL; the highest level (Cmax) was 6080 ng/mL; the Tmax – broadly, the time from dosing to the highest level – was found to be 0.67 h; the half-life was 2.03 h. In the data set with MV4-11 cells (Homo sapiens), the pIC50 (in general, the IC50 on a negative log10 scale, so that one unit is a factor of ten) is 7.22. At HiBiT tagged GSPT1, this compound registered a Dmax of 16.2%.

`O=C1CCC(N2Cc3cc(C(=O)N[C@H](c4ccc(F)cc4F)C4CCC4)ccc3C2=O)C(=O)N1` (stereo in doubt) [Compound 41, N-((*S)-cyclobutyl(2,4-difluorophenyl)methyl)-2-(2,6-dioxopiperidin-3-yl)-1-oxoisoindoline-5-carboxamide]: the maximal degradation (Dmax) on HiBiT tagged CK1α (maximum CK1α degradation) turned out to be 70.5%. The DC50 – broadly, the midpoint of the concentration-degradation curve – at HiBiT tagged CK1α (HT-1080 cells) was determined as 82.4 nM. Besides, in data set [1] (10 mg/kg, PO), the F is 76.8%, the AUC(0-inf) amounted to 5870 ng·h/mL, the peak level (Cmax) was 1570 ng/mL and the Tmax came to 0.83 h. Moreover, the half-life in data set [1] (10 mg/kg, PO) is 2.72 h. Further, in data set [1] (2 mg/kg, IV), the C0 came out at 1860 ng/mL, the clearance is 23 mL/min/kg, the half-life was 2.84 h and the Vd is 3.2 L/kg. In the data set on MV4-11 cells (Homo sapiens), the pIC50 was 6.94. At HiBiT tagged GSPT1, this compound registered a Dmax of 24.9%.

`O=C1CCC(N2Cc3cc(C(=O)N[C@@H](c4ccc(F)cc4F)C4CCC4)ccc3C2=O)C(=O)N1` (stereo in doubt) [Compound 42, N-((*R)-cyclobutyl(2,4-difluorophenyl)methyl)-2-(2,6-dioxopiperidin-3-yl)-1-oxoisoindoline-5-carboxamide]: the Dmax at HiBiT tagged CK1α (maximum CK1α degradation) was 57.7%; at HiBiT tagged GSPT1 it was 40.8%. The compound further registered a DC50 on HiBiT tagged CK1α (HT-1080 cells) of 1150 nM. The pIC50 with MV4-11 cells (Homo sapiens) is 6.38.

On to `O=C1CCC(N2Cc3cc(C(=O)N[C@H](c4ccc(Cl)cn4)C4CCC4)ccc3C2=O)C(=O)N1` (stereo in doubt) [Compound 76, N—((*S)-(5-chloropyridin-2-yl)(cyclobutyl)methyl)-2-(2,6-dioxopiperidin-3-yl)-1-oxoisoindoline-5-carboxamide], for which the DC50 at HiBiT tagged CK1α (HT-1080 cells) stood at 219 nM. The “HiBiT CK1α: Dmax” value at HiBiT tagged CK1α (HT-1080 cells, maximum CK1α degradation) worked out at 64.4%. Moreover, the pIC50 in the data set with MV4-11 cells was 7.15. In addition, the “HiBiT GSPT1: Dmax” value at HiBiT tagged GSPT1 (HT-1080 cells) is 23.5%.

Take `O=C1CCC(N2Cc3cc(C(=O)N[C@H](c4ccc(F)cn4)C4CCC4)ccc3C2=O)C(=O)N1` (stereo in doubt) [Compound 78, N-((*S)-cyclobutyl(5-fluoropyridin-2-yl)methyl)-2-(2,6-dioxopiperidin-3-yl)-1-oxoisoindoline-5-carboxamide]: the values for the Dmax at HiBiT tagged CK1α (maximum CK1α degradation) and at HiBiT tagged GSPT1 were 67.2% and 14.4%, respectively. Also, on HiBiT tagged CK1α (HT-1080 cells), it took 198 nM to reach half-maximal degradation (DC50). Moreover, the pIC50 in the data set on MV4-11 cells (Homo sapiens) was 6.75.

Take `O=C1CCC(N2Cc3cc(C(=O)N[C@H](c4ncc(Cl)cc4Cl)C4CCC4)ccc3C2=O)C(=O)N1` (stereo in doubt) [Compound 79, N-((*S)-cyclobutyl(3,5-dichloropyridin-2-yl)methyl)-2-(2,6-dioxopiperidin-3-yl)-1-oxoisoindoline-5-carboxamide]: the Dmax on HiBiT tagged CK1α (maximum CK1α degradation) came to 65.9%; on HiBiT tagged GSPT1, 20.4%. The compound also displayed a DC50 at HiBiT tagged CK1α (HT-1080 cells) of 274 nM. Also, in the data set on MV4-11 cells (Homo sapiens), the pIC50 was 6.75.

For `O=C1CCC(N2Cc3cc(C(=O)N[C@H](c4ncccc4-c4ccc(F)cc4)C4CCC4)ccc3C2=O)C(=O)N1` (stereo in doubt) [Compound 83, N—((*S)-cyclobutyl(3-(4-fluorophenyl)pyridin-2-yl)methyl)-2-(2,6-dioxopiperidin-3-yl)-1-oxoisoindoline-5-carboxamide], the Dmax worked out at 66% on HiBiT tagged CK1α (maximum CK1α degradation) and 14.4% on HiBiT tagged GSPT1. This compound had a 50% degradation concentration (DC50) at HiBiT tagged CK1α (HT-1080 cells) of 115 nM. Moreover, the pIC50 in the data set on MV4-11 cells (Homo sapiens) is 7.57.

At HiBiT tagged CK1α (maximum CK1α degradation), `O=C1CCC(N2Cc3cc(C(=O)N[C@H](c4ccc(F)cn4)C4(F)CCC4)ccc3C2=O)C(=O)N1` (stereo in doubt) [Compound 86, 2-(2,6-dioxopiperidin-3-yl)-N-((*R)-(1-fluorocyclobutyl)(5-fluoropyridin-2-yl)methyl)-1-oxoisoindoline-5-carboxamide] came in with a Dmax of 63%. This compound also displayed a DC50 at HiBiT tagged CK1α (HT-1080 cells) of 193 nM. For the same compound, in data set [1] (10 mg/kg, PO), the F is recorded as 70.4%, the AUC(0-inf) amounted to 14900 ng·h/mL, the highest level (Cmax) was 5690 ng/mL and the Tmax came out at 0.5 h. This compound gave a half-life in data set [1] (10 mg/kg, PO) of 2.12 h. In addition, in data set [1] (2 mg/kg, IV), the C0 is 4910 ng/mL, the clearance worked out at 7.85 mL/min/kg, the half-life is 3.62 h and the Vd is 0.87 L/kg. Moreover, the pIC50 in the data set with MV4-11 cells (Homo sapiens) was 6.85. The compound also came in with a Dmax at HiBiT tagged GSPT1 of 18.2%.

In the case of `O=C1CCC(N2Cc3cc(C(=O)N[C@H](c4ncccc4Cl)C4(F)CCC4)ccc3C2=O)C(=O)N1` (stereo in doubt) [Compound 87, N-[(*R)-(3-chloro-2-pyridyl)-(1-fluorocyclobutyl)methyl]-2-(2,6-dioxo-3-piperidyl)-1-oxo-isoindoline-5-carboxamide], the Dmax at HiBiT tagged CK1α (maximum CK1α degradation) turned out to be 59.8%; at HiBiT tagged GSPT1 it was 25%. This compound also displayed a 50% degradation concentration (DC50) at HiBiT tagged CK1α (HT-1080 cells) of 279 nM. The pIC50 in the data set on MV4-11 cells (Homo sapiens) is 6.88.

As for `O=C1CCC(N2Cc3cc(C(=O)N[C@H](c4ncc(Cl)cc4F)C4(F)CCC4)ccc3C2=O)C(=O)N1` (stereo in doubt) [Compound 89, N-((*R)-(5-chloro-3-fluoropyridin-2-yl)(1-fluorocyclobutyl)methyl)-2-(2,6-dioxopiperidin-3-yl)-1-oxoisoindoline-5-carboxamide], the Dmax on HiBiT tagged CK1α (maximum CK1α degradation) was 69%; on HiBiT tagged GSPT1, 17.3%. Further, on HiBiT tagged CK1α (HT-1080 cells), it took 148 nM to reach half-maximal degradation (DC50). The pIC50 in the data set with MV4-11 cells (Homo sapiens) was 6.70.

For the origin of these results see patent US12673936B2, “Isoindolinone compounds, and uses thereof” (HANGZHOU GLUBIO PHARMACEUTICAL CO., LTD., priority 2021, dated 2026).
